For the assay, the target named is T1, fatty acid amide hydrolase (FAAH) (Homo sapiens, UniProt O00519).
T1 construct: human recombinant FAAH
T1 sequence (O00519 1-579): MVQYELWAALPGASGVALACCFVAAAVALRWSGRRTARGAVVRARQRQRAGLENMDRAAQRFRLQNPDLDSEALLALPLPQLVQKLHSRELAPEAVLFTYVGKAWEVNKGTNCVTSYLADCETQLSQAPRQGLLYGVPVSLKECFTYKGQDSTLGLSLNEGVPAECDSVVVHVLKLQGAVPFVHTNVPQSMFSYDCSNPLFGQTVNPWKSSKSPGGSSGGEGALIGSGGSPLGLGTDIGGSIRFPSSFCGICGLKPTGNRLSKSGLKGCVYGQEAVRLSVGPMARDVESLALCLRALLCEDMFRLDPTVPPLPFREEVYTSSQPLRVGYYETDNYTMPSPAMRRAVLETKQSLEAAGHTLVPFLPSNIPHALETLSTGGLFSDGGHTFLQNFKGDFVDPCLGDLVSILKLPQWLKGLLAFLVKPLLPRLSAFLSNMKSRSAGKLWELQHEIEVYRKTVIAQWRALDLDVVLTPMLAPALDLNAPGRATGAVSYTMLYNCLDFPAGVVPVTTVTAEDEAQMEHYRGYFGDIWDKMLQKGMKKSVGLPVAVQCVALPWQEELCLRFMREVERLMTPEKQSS
In words: fluorescence FAAH inhibitor screening kit (Cayman), AMC arachidonoyl amide substrate, […] propofol. Type of assay: biochemical.

As to `CC(C)c1cccc(C(C)C)c1O` [propofol], the IC50 is roughly 28 µM.

Values taken from publication PMC5549482, “Activation of Endocannabinoid Receptor 2 as a Mechanism of Propofol Pretreatment-Induced Cardioprotection against Ischemia-Reperfusion Injury in Rats” (Oxidative Medicine and Cellular Longevity, 2017).
